# Legend:
# Assay type in all cases: functional
# CCRF-CEM [1] = assay: Cytotoxicity against human CCRF-CEM cells assessed as cell growth at 1 uM after 48 hrs by sulforhodamine B assay relative to control; details: read-out: Activity
# SK-MEL-28 = assay: Cytotoxicity against human SK-MEL-28 cells assessed as cell growth at 0.1 uM after 48 hrs by sulforhodamine B assay relative to control; details: SK-MEL-28, 48 h, read-out: Activity
# SF-539 = assay: Cytotoxicity against human SF539 cells assessed as cell growth at 100 uM after 48 hrs by sulforhodamine B assay relative to control; details: SF-539, 48 h, read-out: Activity
# U-251 = assay: Cytotoxicity against human U251 cells assessed as cell growth at 10 uM after 48 hrs by sulforhodamine B assay relative to control; details: U-251, 48 h, read-out: Activity
# SN12C = assay: Cytotoxicity against human SN12C cells assessed as cell growth at 100 uM after 48 hrs by sulforhodamine B assay relative to control; details: read-out: Activity
# HCT-116 [2] = assay: Cytotoxicity against human HCT116 cells assessed as growth inhibition after 48 hrs by sulforhodamine B assay; details: HCT-116, 48 h
# NCI-H226 [3] = assay: Cytotoxicity against human NCI-H226 cells assessed as cell growth at 10 uM after 48 hrs by sulforhodamine B assay relative to control; details: NCI-H226, 48 h, read-out: Activity
# OVCAR-8 [4] = assay: Cytotoxicity against human OVCAR8 cells assessed as cell growth at 1 uM after 48 hrs by sulforhodamine B assay relative to control; details: OVCAR-8, 48 h, read-out: Activity
# DU-145 = assay: Cytotoxicity against human DU145 cells assessed as cell growth at 10 uM after 48 hrs by sulforhodamine B assay relative to control; details: DU-145, 48 h, read-out: Activity
# MDA-MB-435 = assay: Cytotoxicity against human MDA-MB-435 cells assessed as cell growth at 0.01 uM after 48 hrs by sulforhodamine B assay relative to control; details: MDA-MB-435, 48 h, read-out: Activity
# SF-268 = assay: Cytotoxicity against human SF268 cells assessed as cell growth at 0.01 uM after 48 hrs by sulforhodamine B assay relative to control; details: SF-268, 48 h, read-out: Activity
# Malme-3M [5] = assay: Cytotoxicity against human MALME-3M cells assessed as cell growth at 10 uM after 48 hrs by sulforhodamine B assay relative to control; details: read-out: Activity
# MDA-MB-468 = assay: Cytotoxicity against human MDA-MB-468 cells assessed as cell growth at 0.1 uM after 48 hrs by sulforhodamine B assay relative to control; details: MDA-MB-468, 48 h, read-out: Activity
# OVCAR-8 [6] = assay: Cytotoxicity against human OVCAR8 cells assessed as cell growth at 10 uM after 48 hrs by sulforhodamine B assay relative to control; details: OVCAR-8, 48 h, read-out: Activity
# NCI-H460 = assay: Cytotoxicity against human NCI-H460 cells assessed as cell growth at 1 uM after 48 hrs by sulforhodamine B assay relative to control; details: NCI-H460, 48 h, read-out: Activity
# HCT-116 [7] = assay: Cytotoxicity against human HCT116 cells assessed as cell growth at 100 uM after 48 hrs by sulforhodamine B assay relative to control; details: HCT-116, 48 h, read-out: Activity
# SW-620 [8] = assay: Cytotoxicity against human SW620 cells assessed as cell growth at 10 uM after 48 hrs by sulforhodamine B assay relative to control; details: SW-620, 48 h, read-out: Activity
# M14 = assay: Cytotoxicity against human M14 cells assessed as growth inhibition after 48 hrs by sulforhodamine B assay; details: M14, 48 h
# SNB-19 = assay: Cytotoxicity against human SNB19 cells assessed as cell growth at 100 uM after 48 hrs by sulforhodamine B assay relative to control; details: SNB-19, 48 h, read-out: Activity
# HT-29 [9] = assay: Cytotoxicity against human HT-29 cells assessed as cell growth at 0.01 uM after 48 hrs by sulforhodamine B assay relative to control; details: HT-29, 48 h, read-out: Activity
# A549 [10] = assay: Cytotoxicity against human A549/ATCC cells assessed as growth inhibition after 48 hrs by sulforhodamine B assay; details: A549, 48 h
# HT-29 [11] = assay: Cytotoxicity against human HT-29 cells assessed as cell growth at 0.1 uM after 48 hrs by sulforhodamine B assay relative to control; details: HT-29, 48 h, read-out: Activity
# CCRF-CEM [12] = assay: Cytotoxicity against human CCRF-CEM cells assessed as cell growth at 0.01 uM after 48 hrs by sulforhodamine B assay relative to control; details: read-out: Activity
# OVCAR-8 [13] = assay: Cytotoxicity against human OVCAR8 cells assessed as growth inhibition after 48 hrs by sulforhodamine B assay; details: OVCAR-8, 48 h
# PC-3 = assay: Cytotoxicity against human PC3 cells assessed as cell growth at 0.01 uM after 48 hrs by sulforhodamine B assay relative to control; details: PC-3, 48 h, read-out: Activity
# NCI-H226 [14] = assay: Cytotoxicity against human NCI-H226 cells assessed as cell growth at 100 uM after 48 hrs by sulforhodamine B assay relative to control; details: NCI-H226, 48 h, read-out: Activity
# SW-620 [15] = assay: Cytotoxicity against human SW620 cells assessed as cell growth at 1 uM after 48 hrs by sulforhodamine B assay relative to control; details: SW-620, 48 h, read-out: Activity
# HCT-15 = assay: Cytotoxicity against human HCT15 cells assessed as cell growth at 0.1 uM after 48 hrs by sulforhodamine B assay relative to control; details: HCT-15, 48 h, read-out: Activity
# RPMI-8226 [16] = assay: Cytotoxicity against human RPMI8226 cells assessed as cell growth at 100 uM after 48 hrs by sulforhodamine B assay relative to control; details: RPMI-8226, 48 h, read-out: Activity
# A549 [17] = assay: Cytotoxicity against human A549/ATCC cells assessed as cell growth at 0.01 uM after 48 hrs by sulforhodamine B assay relative to control; details: A549, 48 h, read-out: Activity
# Malme-3M [18] = assay: Cytotoxicity against human MALME-3M cells assessed as growth inhibition after 48 hrs by sulforhodamine B assay
# UACC-257 = assay: Cytotoxicity against human UACC257 cells assessed as cell growth at 1 uM after 48 hrs by sulforhodamine B assay relative to control; details: UACC-257, 48 h, read-out: Activity
# Malme-3M [19] = assay: Cytotoxicity against human MALME-3M cells assessed as cell growth at 100 uM after 48 hrs by sulforhodamine B assay relative to control; details: read-out: Activity
# RPMI-8226 [20] = assay: Cytotoxicity against human RPMI8226 cells assessed as cell growth at 0.01 uM after 48 hrs by sulforhodamine B assay relative to control; details: RPMI-8226, 48 h, read-out: Activity
# COLO 205 = assay: Cytotoxicity against human COLO205 cells assessed as cell growth at 100 uM after 48 hrs by sulforhodamine B assay relative to control; details: COLO 205, 48 h, read-out: Activity
# K562 = assay: Cytotoxicity against human K562 cells assessed as growth inhibition after 48 hrs by sulforhodamine B assay; details: K562, 48 h
smiles,measurement,setting,value
COc1ccc(C(=O)/C=C/c2cc(-c3ccc(OC)c(OC)c3)n[nH]2)cc1OC,growth at 1 µM,CCRF-CEM [1],15%
same,growth at 0.1 µM,SK-MEL-28,95%
same,growth at 100 µM,SF-539,-83%
same,growth at 10 µM,U-251,-85%
same,growth at 100 µM,SN12C,-37%
same,GI50,HCT-116 [2],0.369 µM
same,TGI,HCT-116 [2],1.71 µM
same,growth at 10 µM,NCI-H226 [3],-46%
same,growth at 1 µM,OVCAR-8 [4],80%
same,growth at 10 µM,DU-145,-34%
same,growth at 0.01 µM,MDA-MB-435,89%
same,growth at 0.01 µM,SF-268,96%
same,growth at 10 µM,Malme-3M [5],-27%
same,growth at 0.1 µM,MDA-MB-468,80%
same,growth at 10 µM,OVCAR-8 [6],8%
same,growth at 1 µM,NCI-H460,36%
same,growth at 100 µM,HCT-116 [7],-45%
same,growth at 10 µM,SW-620 [8],-24%
same,GI50,M14,1.91 µM
same,TGI,M14,4.11 µM
same,growth at 100 µM,SNB-19,-36%
same,growth at 0.01 µM,HT-29 [9],98%
same,GI50,A549 [10],2.25 µM
same,TGI,A549 [10],10.2 µM
same,growth at 0.1 µM,HT-29 [11],96%
same,growth at 0.01 µM,CCRF-CEM [12],99%
same,GI50,OVCAR-8 [13],2.63 µM
same,TGI,OVCAR-8 [13],22.5 µM
same,growth at 0.01 µM,PC-3,99%
same,growth at 100 µM,NCI-H226 [14],-5%
same,growth at 1 µM,SW-620 [15],66%
same,growth at 0.1 µM,HCT-15,95%
same,growth at 100 µM,RPMI-8226 [16],-38%
same,growth at 0.01 µM,A549 [17],97%
same,GI50,Malme-3M [18],2.59 µM
same,TGI,Malme-3M [18],6.21 µM
same,growth at 1 µM,UACC-257,96%
same,growth at 100 µM,Malme-3M [19],-11%
same,growth at 0.01 µM,RPMI-8226 [20],98%
same,growth at 100 µM,COLO 205,-70%
same,GI50,K562,0.619 µM
same,TGI,K562,> 100 µM
COc1ccc(C(=O)/C=C/c2cc(-c3ccc4c(c3)OCO4)n[nH]2)cc1OC,growth at 1 µM,CCRF-CEM [1],85%
same,growth at 0.1 µM,SK-MEL-28,104%
same,growth at 100 µM,SF-539,-83%
same,growth at 10 µM,U-251,-25%
same,growth at 100 µM,SN12C,-73%
same,LC50,HCT-116 [2],56.2 µM
same,TGI,HCT-116 [2],7.99 µM
same,growth at 10 µM,NCI-H226 [3],1%
same,growth at 1 µM,OVCAR-8 [4],89%
same,growth at 10 µM,DU-145,-51%
same,growth at 0.01 µM,MDA-MB-435,98%
same,growth at 0.01 µM,SF-268,93%
same,growth at 10 µM,Malme-3M [5],41%
same,growth at 0.1 µM,MDA-MB-468,90%
same,growth at 10 µM,OVCAR-8 [6],-27%
same,growth at 1 µM,NCI-H460,87%
same,growth at 100 µM,HCT-116 [7],-64%
same,growth at 10 µM,SW-620 [8],-43%
same,LC50 (concentration killing 50% of cells),M14,58.4 µM
same,TGI,M14,21.4 µM
same,growth at 100 µM,SNB-19,-95%
same,growth at 0.01 µM,HT-29 [9],93%
same,LC50 (concentration giving 50% net cell kill),A549 [10],> 100 µM
same,TGI,A549 [10],15.8 µM
same,growth at 0.1 µM,HT-29 [11],92%
same,growth at 0.01 µM,CCRF-CEM [12],99%
same,LC50,OVCAR-8 [13],40.2 µM
same,TGI,OVCAR-8 [13],5.82 µM
same,growth at 0.01 µM,PC-3,99%
same,growth at 100 µM,NCI-H226 [14],-20%
same,growth at 1 µM,SW-620 [15],92%
same,growth at 0.1 µM,HCT-15,95%
same,growth at 100 µM,RPMI-8226 [16],-45%
same,growth at 0.01 µM,A549 [17],96%
same,LC50,Malme-3M [18],61.8 µM
same,TGI,Malme-3M [18],22.8 µM
same,growth at 1 µM,UACC-257,93%
same,growth at 100 µM,Malme-3M [19],-74%
same,growth at 0.01 µM,RPMI-8226 [20],99%
same,growth at 100 µM,COLO 205,-83%
same,LC50 (concentration killing 50% of cells),K562,> 100 µM
same,TGI,K562,16.7 µM
COc1ccc(C(=O)/C=C/c2cc(-c3cc(OC)c(OC)c(OC)c3)n[nH]2)cc1OC,growth at 1 µM,CCRF-CEM [1],39%
same,growth at 0.1 µM,SK-MEL-28,104%
same,growth at 100 µM,SF-539,-96%
same,growth at 10 µM,U-251,-100%
same,growth at 100 µM,SN12C,-86%
same,TGI,HCT-116 [2],2.63 µM
same,growth at 10 µM,NCI-H226 [3],-81%
same,growth at 1 µM,OVCAR-8 [4],69%
same,growth at 10 µM,DU-145,-89%
same,growth at 0.01 µM,MDA-MB-435,95%
same,growth at 0.01 µM,SF-268,93%
same,growth at 10 µM,Malme-3M [5],-82%
same,growth at 0.1 µM,MDA-MB-468,89%
same,growth at 10 µM,OVCAR-8 [6],-89%
same,growth at 1 µM,NCI-H460,70%
same,growth at 100 µM,HCT-116 [7],-13%
same,growth at 10 µM,SW-620 [8],-77%
same,LC50 (concentration killing 50% of cells),M14,7.38 µM
same,TGI,M14,3.69 µM
same,growth at 100 µM,SNB-19,-95%
same,growth at 0.01 µM,HT-29 [9],100%
same,LC50 (concentration giving 50% net cell kill),A549 [10],15.7 µM
same,TGI,A549 [10],4.59 µM
same,growth at 0.1 µM,HT-29 [11],105%
same,growth at 0.01 µM,CCRF-CEM [12],95%
same,LC50,OVCAR-8 [13],5.64 µM
same,TGI,OVCAR-8 [13],2.73 µM
same,growth at 0.01 µM,PC-3,96%
same,growth at 100 µM,NCI-H226 [14],-49%
same,growth at 1 µM,SW-620 [15],70%
same,growth at 0.1 µM,HCT-15,98%
same,growth at 100 µM,RPMI-8226 [16],-41%
same,growth at 0.01 µM,A549 [17],98%
same,LC50,Malme-3M [18],6.79 µM
same,TGI,Malme-3M [18],3.68 µM
same,growth at 1 µM,UACC-257,81%
same,growth at 100 µM,Malme-3M [19],-81%
same,growth at 0.01 µM,RPMI-8226 [20],94%
same,growth at 100 µM,COLO 205,-75%
same,LC50 (concentration killing 50% of cells),K562,> 100 µM
same,TGI,K562,7.12 µM
